Assay results reported in ChEMBL document CHEMBL3885881, “DrugMatrix”.

Organism: Rattus norvegicus
Test: DrugMatrix - Regimen: Daily Repeat
Format: toxicity, organism-based, Sprague-Dawley
Set-up: regimen Daily Repeat, gender Male, age 6-8 weeks
Conditions: in vivo, po, route oral GAVAGE, vehicle .5 % CMC; for BASOPHIL / EOSINOPHIL / ERYTHROCYTE COUNT / HEMATOCRIT / HEMOGLOBIN / LEUKOCYTE COUNT / LYMPHOCYTE / MEAN CORPUSCULAR HEMOGLOBIN / MEAN CORPUSCULAR HEMOGLOBIN CONCENTRATION / MEAN CORPUSCULAR VOLUME / MONOCYTE / NEUTROPHIL / PLATELET COUNT: tissue Blood; for ALANINE AMINOTRANSFERASE / ALBUMIN / ALKALINE PHOSPHATASE / ASPARTATE AMINOTRANSFERASE / BLOOD UREA NITROGEN / CHLORIDE / CHOLESTEROL / CREATINE PHOSPHOKINASE / CREATININE / GLUCOSE / PHOSPHORUS / POTASSIUM / SODIUM / TOTAL BILIRUBIN / TOTAL PROTEIN: tissue Plasma
[1] = 0 mg/kg, 72 h, dose level Control, time 3 day
[2] = 0 mg/kg, 120 h, dose level Control, time 5 day
[3] = 50 mg/kg, 72 h, dose level Low, time 3 day

CC(C)NCC(O)COc1ccc(CC(N)=O)cc1 (centres undefined) [ATENOLOL]
BASOPHIL [1]: 0%
EOSINOPHIL [1]: 0.33%
ERYTHROCYTE COUNT [1]: 6.2 x10E6/uL
HEMATOCRIT [1]: 38.08%
HEMOGLOBIN [1]: 14.92 G/DL
LEUKOCYTE COUNT [1]: 11.13 x10E3/uL
LYMPHOCYTE [1]: 76%
MEAN CORPUSCULAR HEMOGLOBIN [1]: 24.1 pg
MEAN CORPUSCULAR HEMOGLOBIN CONCENTRATION [1]: 39.17 G/DL
MEAN CORPUSCULAR VOLUME [1]: 61.48 fL
MONOCYTE [1]: 3.83%
NEUTROPHIL [1]: 19.83%
PLATELET COUNT [1]: 1327.5 x10E3/uL
ALANINE AMINOTRANSFERASE [1]: 40.17 u/L
ALBUMIN [1]: 4.07 G/DL
ALKALINE PHOSPHATASE [1]: 372 u/L
ASPARTATE AMINOTRANSFERASE [1]: 67.17 u/L
BLOOD UREA NITROGEN [1]: 18.83 mg/dL
CHLORIDE [1]: 105.17 MEQ/L
CHOLESTEROL [1]: 78.17 mg/dL
CREATINE PHOSPHOKINASE [1]: 149.17 u/L
CREATININE [1]: 0.57 mg/dL
GLUCOSE [1]: 185.17 mg/dL
PHOSPHORUS [1]: 11.43 mg/dL
POTASSIUM [1]: 6.78 MEQ/L
SODIUM [1]: 152.83 MEQ/L
TOTAL BILIRUBIN [1]: 0.4 mg/dL
TOTAL PROTEIN [1]: 6.87 G/DL
BASOPHIL [2]: 0%
EOSINOPHIL [2]: 0%
ERYTHROCYTE COUNT [2]: 6.05 x10E6/uL
HEMATOCRIT [2]: 36.55%
HEMOGLOBIN [2]: 14.7 G/DL
LEUKOCYTE COUNT [2]: 11.8 x10E3/uL
LYMPHOCYTE [2]: 86.83%
MEAN CORPUSCULAR HEMOGLOBIN [2]: 24.37 pg
MEAN CORPUSCULAR HEMOGLOBIN CONCENTRATION [2]: 40.32 G/DL
MEAN CORPUSCULAR VOLUME [2]: 60.47 fL
MONOCYTE [2]: 0.83%
NEUTROPHIL [2]: 12.33%
PLATELET COUNT [2]: 1177 x10E3/uL
ALANINE AMINOTRANSFERASE [2]: 41.83 u/L
ALBUMIN [2]: 3.75 G/DL
ALKALINE PHOSPHATASE [2]: 377.5 u/L
ASPARTATE AMINOTRANSFERASE [2]: 60.83 u/L
BLOOD UREA NITROGEN [2]: 16 mg/dL
CHLORIDE [2]: 105.67 MEQ/L
CHOLESTEROL [2]: 67.83 mg/dL
CREATINE PHOSPHOKINASE [2]: 120.33 u/L
CREATININE [2]: 0.6 mg/dL
GLUCOSE [2]: 167.67 mg/dL
PHOSPHORUS [2]: 10.03 mg/dL
POTASSIUM [2]: 6.68 MEQ/L
SODIUM [2]: 150.5 MEQ/L
TOTAL BILIRUBIN [2]: 0.57 mg/dL
TOTAL PROTEIN [2]: 6.25 G/DL
BASOPHIL [3]: 0%
EOSINOPHIL [3]: 0%
ERYTHROCYTE COUNT [3]: 5.54 x10E6/uL
HEMATOCRIT [3]: 35.3%
HEMOGLOBIN [3]: 13.9 G/DL
LEUKOCYTE COUNT [3]: 9.75 x10E3/uL
LYMPHOCYTE [3]: 86%
MEAN CORPUSCULAR HEMOGLOBIN [3]: 25.1 pg
MEAN CORPUSCULAR HEMOGLOBIN CONCENTRATION [3]: 39.35 G/DL
MEAN CORPUSCULAR VOLUME [3]: 63.75 fL
MONOCYTE [3]: 1%
NEUTROPHIL [3]: 13%
PLATELET COUNT [3]: 1258 x10E3/uL
ALANINE AMINOTRANSFERASE [3]: 34.5 u/L
ALBUMIN [3]: 3.75 G/DL
ALKALINE PHOSPHATASE [3]: 332 u/L
ASPARTATE AMINOTRANSFERASE [3]: 57 u/L
BLOOD UREA NITROGEN [3]: 18 mg/dL
CHLORIDE [3]: 106 MEQ/L
CHOLESTEROL [3]: 83 mg/dL
CREATINE PHOSPHOKINASE [3]: 110 u/L
CREATININE [3]: 0.55 mg/dL
GLUCOSE [3]: 164.5 mg/dL
PHOSPHORUS [3]: 11.45 mg/dL
POTASSIUM [3]: 6.45 MEQ/L
SODIUM [3]: 152 MEQ/L
TOTAL BILIRUBIN [3]: 0.3 mg/dL
TOTAL PROTEIN [3]: 6.2 G/DL
